We go through 15 compounds from patent US11230569B2, “Antiplasmodial compounds” (UNIVERSITY OF CENTRAL FLORIDA RESEARCH FOUNDATION, INC., priority 2018, dated 2022).

One experiment deals with P. falciparum Dd2. Nature of the experiment: SYBR Green I-based fluorescence assay, intraerythrocytic growth inhibition. It is filed as cell-based, Plasmodium falciparum. The text has this: (§1) In the pursuit to discover next generation of antimalarials from novel areas of chemical space, a large library of diverse fungi was screened to discover secondary metabolites active against malaria parasite. […] The Cichewicz fungal collection contains tens of thousands of fungal isolates that were secured from diverse habitats and ecological niches across the United States. It is believed that fungal secondary metabolites, which are underexplored for antimalarial drug discovery, provide a unique opportunity to explore medicinally relevant, but untapped chemical space for the discovery of essential malaria therapeutics. Libraries of 750 pure compounds, and of 460 extracts obtained from diverse fungal sources have been screened for their ability to inhibit intraerythrocytic growth of chloroquine-resistant P. falciparum Dd2 using a SYBR Green I-based fluorescence assay. As a counter screen, the cytotoxicity of the top ten extracts in HepG2 cells was evaluated using the MTS ((3-(4,5 dimethylthiazol-2-yl)-5-(3-carboxymethoxyphenyl)-2-(4-sulfophenyl)-2H-tetrazolium, inner salt) cell proliferation assay. This screening has identified potent and selective novel antiplasmodial compounds. These unique pharmacophores from wide areas of chemical space would provide chemical starting points to develop lead compounds for drugs against malaria.
Ten millimolar compound stocks in DMSO were diluted by ½, ⅕, and/or 1/10 fold dilutions in ultrapure water or RPMI 1640. Varying concentrations of compound were added to culture at a 1% parasitemia and 2% hematocrit in 96-well black plates. Assay conditions maintained maximum DMSO concentrations less than 0.125% per dilution. Positive (baseline 0% growth) controls consisted of Chloroquine at 1 μM final concentration. Following 72 h incubation at 37° C. in 5% CO2, dilution plates were frozen at −80° C. for a minimum of 30 minutes. Dilution plates were allowed to thaw followed by lysis treatment and SYBR Green I incorporation. DNA quantification was determined using a fluorescence reading on a Synergy H4 multimode plate reader set at 485 nm excitation and 530 nm emission as previously reported (Roberts, Iyamu et al. 2016). EC50 was calculated from a dose response curve that was generated from a concentration range of 0-10 μM using GraphPad Prism v5.0.
Different dilutions of the compound/fraction in 1 μl of the culture medium were added to 99 μl of P. falciparum culture at a 1% parasitemia and 2% hematocrit in 96-well plates. Maximum DMSO concentration in the culture never exceeded 0.125%. Chloroquine at 1 μM was used as a positive control to determine the baseline value. Following 72 hours incubation at 37° C., the plates were frozen at −80° C. After thawing, 100 μL of lysis buffer (with SYBR Green I dye 1:10,000) was added to each well and plates were incubated at room temperature for 30 minutes prior to reading.
Culture was maintained following a modified Trager and Jensen protocol.^xxv Multi-drug resistant P. falciparum line Dd2 was grown in RPMI 1640 supplemented with 25 mM HEPES pH 7.4, 26 mM NaHCO3, 2% dextrose, 15 mg/L hypoxanthine, 25 mg/L gentamycin and 0.5% Albumax II in human A+ erythrocytes. Culture was maintained at 4% hematocrit at 37° C. with 5% CO2.
Plates were subsequently frozen at −80° C. to facilitate lysis. After thawing, plates were incubated with 1×SYBR Green I in lysis buffer (20 mM Tris-HCl, 0.08% saponin, 5 mM EDTA, 0.8% Triton X-100) for 45-60 min at room temperature. Fluorescence was measured at an excitation wavelength 485 nm, emission 530 nm in a Synergy Neo2 multi-mode reader (BioTek, Winsooki, Vt.). RFUs were normalized based on chloroquine treated and no treatment controls. For all compounds listed, serial dilutions were prepared in RPMI with final assay conditions of 0.2% DMSO or below.

A further experiment concerns HepG2 human hepatocytes. Nature of the experiment: MTS cytotoxicity assay in HepG2 cells (counter screen, selectivity). The settings on record: for Selectivity Index: Hep G2 cell EC50 : P. falciparum EC50, pure compound library hits. Format: cell-based.
Description: as §1
Cross selectivity for human cells was determined using HepG2 human hepatocytes and an MTS (3-(4,5-Dimethylthiazol-2-yl)-5-(3-carboxymethoxyphenyl)-2-(4-sulfophenyl)-2H-tetrazolium) based cytotoxicity assay. After seeding 2,250 cells per well into 384-well microtiter plates, cells were incubated for 24 h. Next, serial dilutions of compounds were added to the seeded plates and incubated for additional 48 h at 37° C., and 5% CO2. Zero percent growth control wells were incubated with 5% Triton X-100 for 5 min prior to MTS addition and incubated for 4 h at identical growth conditions. Absorbance was then read at 490 nm in a Synergy Neo2 multi-mode reader (BioTek, Winsooki, Vt.) and values were normalized based on detergent lysed and no treatment controls.
(Tetrazolium assays rely on reduction of a dye to a coloured formazan, in cell work by metabolically active cells.)

A further experiment relates to Histone H4. Nature of the experiment: Western blot of parasite extracts with anti-acetyl histone 4 antibody. Format: cell-based, Plasmodium. The conditions noted are these: mixed stage culture, EC90 concentrations, 4 hrs. On the procedure: Mixed stage culture was incubated with EC90 concentrations of 130134 Analog 2 and PF1070A for 4 hrs and cell free parasite extracts were subjected to western blot analysis using anti-acetyl histone 4 antibody.
Of the hits found, several have known targets in other model systems, allowing us to expedite target analysis. One such compound is Chlamydocin, a known Class I HDAC inhibitor. Western blot analysis of Plasmodium extracts confirms that analogs of this compound causes hyperacetylation of histone 4 and is suspected to target Plasmodium HDAC1.
(In general: A western blot detects proteins with antibodies after separation by electrophoresis.)

Another experiment has as its target PfHDAC1 (Plasmodium falciparum, UniProt Q7K6A1). Briefly: PfHDAC1 assay. Format: biochemical. The text has this: (§2) Culture followed until 54 HPI. Scale bar represents 1 micron. FIG. 10(B) is a western blot showing acetylation following treatment at 6 HPI with 137LJ57K, initial impure extract of 137LJ57K1.
FIGS. 17-20 provide multiple versions of cyclic tetrapeptides along with their EC50s for various noted assays including Pf, Hep G2 and PfHDAC1 assays

The next experiment deals with trophozoites. Nature of the experiment: IFA and western blot for acetylation after treatment at 6 HPI. The settings on record: culture followed until 54 HPI. It is filed as cell-based.
Description: Culture followed until 54 HPI. Scale bar represents 1 micron.
as §2

The subject of the next experiment is P. falciparum. The conditions noted are these: literature; cited from earlier work.
[1] abbreviates: Plasmodium falciparum, DD2, 72 h.
Setting [2] is: Plasmodium falciparum, Top hits from pure compound library, chloroquine-resistant P. falciparum Dd2, 72 h, read-out: EC50.

Read-outs that look alike come from different tables or passages of the source.

By EC50 is commonly meant the concentration at which the effect is half-maximal. For orientation: IC50 means the concentration that gives 50% inhibition.

Chain of PfHDAC1 (Q7K6A1 entry or part of it): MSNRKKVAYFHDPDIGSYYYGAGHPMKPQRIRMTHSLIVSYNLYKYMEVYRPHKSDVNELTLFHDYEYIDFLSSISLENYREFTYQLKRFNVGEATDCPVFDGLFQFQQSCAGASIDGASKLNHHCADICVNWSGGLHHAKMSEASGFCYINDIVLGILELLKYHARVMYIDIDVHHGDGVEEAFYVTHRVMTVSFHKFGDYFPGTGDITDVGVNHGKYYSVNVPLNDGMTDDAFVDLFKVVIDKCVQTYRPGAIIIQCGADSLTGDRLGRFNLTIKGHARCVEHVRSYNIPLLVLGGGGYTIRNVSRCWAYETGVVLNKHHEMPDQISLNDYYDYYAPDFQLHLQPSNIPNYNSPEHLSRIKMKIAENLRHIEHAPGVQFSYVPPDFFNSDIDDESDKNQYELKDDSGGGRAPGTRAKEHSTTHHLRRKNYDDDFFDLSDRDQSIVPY

In the case of `CC1NC(=O)C(CCCCCC(=O)C2CO2)NC(=O)C2CCCN2C(=O)C(Cc2ccccc2)NC1=O` (centres unmarked) [130134 Analog 1, 1-Alanine-chlamydocin], the EC50 in the experiment on P. falciparum Dd2 (setting [1]) is 9 nM. Further, in the experiment on HepG2 human hepatocytes, the “Selectivity Index” value amounted to 3. In addition, the “hyperacetylation of Histone H4” value in the experiment with Histone H4 is “causes hyperacetylation of Histone H4”.

As for `CCC(C)C1NC(=O)C(Cc2ccccc2)NC(=O)C(CCCCCC(=O)C2CO2)NC(=O)C2CCCCN2C1=O` (centres unmarked) [130134 Analog 2, PF1070A], in the experiment on P. falciparum Dd2 (setting [1]), the concentration giving a half-maximal response (EC50) came to 37 nM. Further, the 50% effective concentration (EC50) in the experiment on P. falciparum Dd2 (Plasmodium falciparum, DD2, read-out: EC50 against multidrug resistant malaria) came to 37 nM. Moreover, in the experiment with HepG2 human hepatocytes, the “selectivity (in words)” value is on record as “selective” and the “Selectivity Index” value is greater than 23. Also, the “hyperacetylation of Histone H4” value in the experiment on Histone H4 is “causes hyperacetylation of Histone H4”.

For the compound `CCC(C)C1NC(=O)C(Cc2ccccc2)NC(=O)C(CCCCCC(=O)C2CO2)NC(=O)C2CCCCN2C1=O` (centres unmarked) [Compound 137LJ57K1], the EC50 was 88 nM in the experiment on P. falciparum Dd2 (Plasmodium falciparum, DD2, read-out: Dd2 EC50 (nM)); 13100 nM with HepG2 human hepatocytes (Homo sapiens, HepG2); less than 0.2 nM on PfHDAC1. Moreover, the hyperacetylation result in the experiment on trophozoites is given as “hyperacetylation during trophozoite stage”.

On to `C/C1=C\[C@H](C)C[C@H](C)CC(=O)C[C@H](c2ccc(O)cc2)NC(=O)[C@@H](Cc2c(Br)[nH]c3ccccc23)N(C)C(=O)[C@H](C)NC(=O)[C@@H](C)C1` [Compound 120030], for which, in the experiment with P. falciparum Dd2 (setting [1]), the EC50 amounted to 271 nM. For the same compound, the “Selectivity Index” value with HepG2 human hepatocytes is greater than 92.25.

For `C=C1[C@@H](O)[C@@H]2O[C@]3(CC[C@H](/C=C/[C@@H](C)[C@@H]4CC(C)=C[C@@]5(O[C@H](C[C@@](C)(O)C(=O)O)CC[C@H]5O)O4)O3)CC[C@H]2O[C@@H]1[C@@H](O)C[C@H](C)[C@H]1O[C@@]2(CCCCO2)CC[C@H]1C` [Compound 120033], the 50% effective concentration (EC50) with P. falciparum Dd2 (setting [1]) was found to be 55 nM. In addition, in the experiment on HepG2 human hepatocytes, the “Selectivity Index” value is recorded as greater than 77.

Regarding `COC1=CC(c2ccc[nH]2)=N/C1=C/NCC(C)C` [Compound 120036], the concentration giving a half-maximal response (EC50) in the experiment with P. falciparum Dd2 (setting [2]) was 180 nM. Further, the “Selectivity Index” value in the experiment on HepG2 human hepatocytes came out at 57.31.

For `Oc1cc(O)c2c(c1)O[C@H](c1ccc(O)c(O)c1)[C@@H](O)C2` [Compound 120051], in the experiment on P. falciparum Dd2 (setting [2]), the concentration for a half-maximal effect (EC50) came to 47 nM. For the same compound, the “Selectivity Index” value in the experiment on HepG2 human hepatocytes is 11.44.

For `C[C@@]12OC(=O)[C@]1(C(O)[C@@H]1C=CCCC1)NC(=O)[C@@H]2CCCl` (some centres unmarked) [Compound 120066], the EC50 with P. falciparum Dd2 (setting [1]) was 47 nM. Also, the “Selectivity Index” value in the experiment on HepG2 human hepatocytes worked out at 290.28.

Regarding `CC[C@H]1/C=C/C=C/C[C@@H](C)[C@H](O)[C@@](C)(O)C(=O)[C@@H](C)[C@H](O)[C@@H](C)C(=O)[C@@H](C)[C@H](O)[C@@H](C)/C=C/C(=O)O[C@@H]2[C@H](C)[C@H](CC1)O[C@]1(CC[C@H](C)[C@H](C[C@@H](C)O)O1)[C@H]2C` [Compound 120086], the concentration for a half-maximal effect (EC50) in the experiment with P. falciparum Dd2 (setting [2]) stood at 361 nM. Also, the “Selectivity Index” value in the experiment with HepG2 human hepatocytes was found to be 14.62.

Consider `O=C(c1cc(Cl)c(Cl)[nH]1)c1c(O)cccc1O` [Compound 130115], for which the 50% effective concentration (EC50) with P. falciparum Dd2 (setting [1]) was 491 nM. Moreover, the “Selectivity Index” value in the experiment with HepG2 human hepatocytes is recorded as greater than 32.

On to `CC(C)[C@H]1CC[C@@](O)(CCl)[C@H]2C(=O)OCC(C(=O)O)=C[C@H]12` [Compound 130129], for which, in the experiment on P. falciparum Dd2 (setting [1]), the EC50 came out at 361 nM. The “Selectivity Index” value in the experiment on HepG2 human hepatocytes is recorded as 3.

`CC(C)C1CCC(O)(CCl)C2C(=O)OCC(C(=O)O)=CC12` (centres unmarked) [Compound 130130]: the concentration giving a half-maximal response (EC50) in the experiment with P. falciparum Dd2 (setting [1]) turned out to be 469 nM. The “Selectivity Index” value with HepG2 human hepatocytes is recorded as 3.

`CC(C)[C@H]1CC[C@@](O)(COC(=O)/C(=C/[C@@H]2[C@@H](C(C)C)CCC3(O)COC(=O)[C@@H]23)CO)[C@H]2C(=O)OCC(C(=O)O)=C[C@H]12` (some centres unmarked) [Compound 130131]: in the experiment on P. falciparum Dd2 (setting [2]), the concentration giving a half-maximal response (EC50) was 367 nM. For the same compound, the “Selectivity Index” value in the experiment with HepG2 human hepatocytes is listed as greater than 54.

For the compound `CC[C@H](C)[C@@H](C(=O)O[C@@H](CC(C)C)C(=O)N[C@@H](CC(C)C)C(=O)N[C@@H](C)/C=C/C(=O)N1C(=O)C=C(OC)[C@@H]1C)N(C)C` [gallinamide A], the IC50 with P. falciparum was 8400 nM.

Consider Chlamydocin [Compound 130134], for which, in the experiment with P. falciparum Dd2 (Top hits from pure compound library, chloroquine-resistant P. falciparum Dd2, 72 h, read-out: EC50), the EC50 is 24.7 nM. For the same compound, in the experiment with HepG2 human hepatocytes, the “Selectivity Index” value was 7.
